In patent US9974778B2, “Substituted pyridinones as MGAT2 inhibitors” (BRISTOL-MYERS SQUIBB COMPANY, priority 2014, dated 2018) one finds IC50 data, which are given here for twelve compounds.

Broadly, the IC50 is the concentration that inhibits the measured activity by half.

The assay deals with T1, Human MGAT-2 (Homo sapiens, UniProt Q3SYC2).
T1 construct: made in house; host or cells: Sf9 cells (membrane preparation)
T1 sequence (Q3SYC2 whole entry): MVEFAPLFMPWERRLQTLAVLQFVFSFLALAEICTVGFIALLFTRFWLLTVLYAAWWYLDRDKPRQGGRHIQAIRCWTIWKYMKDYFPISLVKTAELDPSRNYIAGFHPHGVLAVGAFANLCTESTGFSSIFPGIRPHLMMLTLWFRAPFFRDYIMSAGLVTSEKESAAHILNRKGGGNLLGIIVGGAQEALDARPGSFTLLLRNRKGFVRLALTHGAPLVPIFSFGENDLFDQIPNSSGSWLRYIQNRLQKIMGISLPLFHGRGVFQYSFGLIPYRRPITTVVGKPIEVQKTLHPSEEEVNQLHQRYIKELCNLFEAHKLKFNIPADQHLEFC
Briefly: MGAT LCMS Assay. Format: biochemical. The conditions noted are these: human MGAT2 membranes expressed in Sf9 cells; 100 μM 2-oleoylglycerol, 15 μM oleoyl-coenzyme A; read-out: h-MGAT LCMS IC50. The gist of the method:
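Robotic enzyme reaction shaken 10 min, quenched with ice-cold methanol containing 1 μg/mL 1,2-distearoyl-rac-glycerol internal standard. Diolein product measured by LC/MS (C8 column, 65° C, APCI(+) triple quad). IC50 derived from diolein/internal standard peak area ratio.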
Turning to `CCc1ccc(-c2cc(-c3ccc(C4CCC(C)(C)CC4)cc3)[nH]c(=O)c2-c2nn[nH]n2)s1` [Example 161, 6-[4-(4,4-Dimethylcyclohexyl)phenyl]-4-(5-ethylthiophen-2-yl)-3-(2H-1,2,3,4-tetrazol-5-yl)-1,2-dihydropyridin-2-one], the IC50 worked out at 76 nM.

`Cc1ccc(-c2cc(C3CCCCC3)[nH]c(=O)c2C(=O)Nc2cccnc2)cc1` [Example 37, 6-Cyclohexyl-2-oxo-N-(pyridin-3-yl)-4-(p-tolyl)-1,2-dihydropyridine-3-carboxamide]: the 50% inhibitory concentration (IC50) was 543 nM.

With `CCOc1ccc(NC(=O)c2c(-c3ccc(C)cc3)cc(C3CCCC3)[nH]c2=O)cc1` [Example 29, 6-Cyclopentyl-N-(4-ethoxyphenyl)-2-oxo-4-(p-tolyl)-1,2-dihydropyridine-3-carboxamide], the IC50 amounted to 144 nM.

Regarding `O=c1[nH]c(-c2ccc(OCCCCCC(F)(F)F)cc2F)cc(-c2ccc(C3CC3)s2)c1-c1nn[nH]n1` [Example 96, 4-(5-Cyclopropylthiophen-2-yl)-6-(2-fluoro-4-((6,6,6-trifluorohexyl)oxy)phenyl)-3-(2H-tetrazol-5-yl)pyridin-2(1H)-one], the IC50 was found to be 1 nM.

In the case of `C=Cc1c(-c2ccc(CCCCC)cc2)[nH]c(=O)c(C(=O)Nc2ccc(OCC)cc2)c1-c1ccc(C)cc1` [Example 26, N-(4-Ethoxyphenyl)-2-oxo-6-(4-pentylphenyl)-4-(p-tolyl)-5-vinyl-1,2-dihydropyridine-3-carboxamide], the IC50 was determined as 82 nM.

Consider `CCc1ccc(-c2cc(-c3ccc(C4=CCC(C)(C)CC4)cc3)[nH]c(=O)c2-c2nn[nH]n2)s1` [Example 144, 6-(4′,4′-Dimethyl-2′,3′,4′,5′-tetrahydro-[1,1′-biphenyl]-4-yl)-4-(5-ethylthiophen-2-yl)-3-(2H-tetrazol-5-yl)pyridin-2(1H)-one], for which the IC50 was 24 nM.

As to `CCCC1CC=C(c2ccc(-c3cc(-c4ccn(CC5CC5)n4)c(-c4nn[nH]n4)c(=O)[nH]3)cc2)CC1` (stereo not drawn) [Example 173, 4-[1-(Cyclopropylmethyl)-1H-pyrazol-3-yl]-6-[4-(4-propylcyclohex-1-en-1-yl)phenyl]-3-(2H-1,2,3,4-tetrazol-5-yl)-1,2-dihydropyridin-2-one], the IC50 was 57 nM.

For `O=C(Nc1ccc(OC(F)(F)F)cc1)c1c(-c2ccn(CC3CC3)n2)cc(-c2ccc(OCCCCCC(F)(F)F)cc2F)[nH]c1=O` [Example 118, 4-(1-(Cyclopropylmethyl)-1H-pyrazol-3-yl)-6-(2-fluoro-4-((6,6,6-trifluorohexyl)oxy)phenyl)-2-oxo-N-(4-(trifluoromethoxy)phenyl)-1,2-dihydropyridine-3-carboxamide], the IC50 amounted to 19 nM.

In the case of `COc1ccc(NC(=O)c2c(-c3ccc(C)cc3)cc(-c3nc(-c4ccccc4)oc3C)[nH]c2=O)cc1` [Example 4, N-(4-Methoxyphenyl)-6-(5-methyl-2-phenyloxazol-4-yl)-2-oxo-4-(p-tolyl)-1,2-dihydropyridine-3-carboxamide], the half-inhibitory concentration (IC50) is 5 nM.

Consider `CC(C)(C)c1ccc(-c2cc(-c3ccc(OCCCC(F)(F)F)cc3)[nH]c(=O)c2C(=O)Nc2ccccc2)cc1` [Example 44, 4-(4-(tert-Butyl)phenyl)-2-oxo-N-phenyl-6-(4-(4,4,4-trifluorobutoxy)phenyl)-1,2-dihydropyridine-3-carboxamide], for which the IC50 is 6 nM.

On to `CCc1cnc(-c2cc(-c3ccc(OCCCC(F)(F)F)cc3F)[nH]c(=O)c2C(=O)NS(C)(=O)=O)s1` [Example 146, 4-(5-Ethylthiazol-2-yl)-6-(2-fluoro-4-(4,4,4-trifluorobutoxy)phenyl)-N-(methylsulfonyl)-2-oxo-1,2-dihydropyridine-3-carboxamide], for which the IC50 was determined as 29 nM.

For `CC/C=C/c1c(-c2ccc(CCCCC)cc2)[nH]c(=O)c(C(=O)Nc2ccc(OCC)cc2)c1-c1ccc(C)cc1` [Example 31, (E)-5-(But-1-en-1-yl)-N-(4-ethoxyphenyl)-2-oxo-6-(4-pentylphenyl)-4-(p-tolyl)-1,2-dihydropyridine-3-carboxamide], the 50% inhibitory concentration (IC50) came to 178 nM.
